Source: patent US9375484B2, “Taxane silicate prodrugs and nanoparticles” (REGENTS OF THE UNIVERSITY OF MINNESOTA, priority 2011, dated 2016)
Where two headings read alike, the source gives them in different places. Marks after values point to notes of the source that are not given here.

Experiments:
MDA-MB-231 cells = test: MTT cytotoxicity of PTX silicate prodrugs; assay type: cell-based, human
Procedure: MDA-MB-231 and MDA-MB-231 Luciferase positive cells were maintained independently in MEM supplemented with 1% pen/strep and 10% FBS at 37° C. in a humidified incubator. MDA-MB-231 cells were obtained from the American Type Culture Collection. MDA-MB-231 Luc+ cells were obtained from CaliperLS (Hopkinton, Mass., USA). For MTT cytotoxicity studies, MDA-MB-231 cells were seeded at 8,000 cells/well in a 96 well plate in 100 μL MEM with 5% FBS. Paclitaxel, and paclitaxel silicate prodrug stock solutions of 10 mM were prepared in DMSO. Stock solutions were diluted to 2× concentration in MEM with 5% FBS, 100 μL volume, and pipetted into the 96 well plate. Concentration ranges were from 1-10,000 nM. After 48 hours, 30 μL of MTT working reagent was added to cells. Absorbance at 490 nm was monitored on a 96 well plate UV vis detector at 60 minutes. IC50 values were determined by nonlinear regression analysis of log concentration v. response data obtained from the MTT assay. The IC50 was interpolated from the resulting curves using Graphpad Prism v5.1 (Graphpad Software Inc. La Jolla Calif., USA).
Cytotoxicity of the PTX silicate prodrugs 1-3 was examined in the MDA-MB-231 human breast cancer cell line (Table 2).

[1] = PTX silicate hydrolysis rates by 1H NMR; assay type: physicochemical; settings: for krel at C2′ (hydrolysis rate relative to the slowest, 1d) / krel at C7 (hydrolysis rate relative to the slowest, 1d): d6-acetone:D2O:TFA 90:9:1, room temperature; for krel at C2′ (hydrolysis rate relative to the slowest, 1d): 1d = 1.0, ± SD of three trials; for krel at C7 (hydrolysis rate relative to the slowest, 1d): for 2a/2b rate of in situ generated 3a/3b to PTX
Procedure: A known quantity of a PTX prodrug was dissolved in 900 μL of d6-acetone. To this homogenous solution, 100 μL of a 9:1 solution of D2O: trifluoroacetic acid (TFA) was added, and the solution was vigorously mixed. The ^1H NMR spectra was taken (16 transients) on a 500 MHz Varian instrument at multiple time points over the course of more than three half-lives. The study was conducted at room temperature (rt=22.5° C.±1.0° C.) Upon completion of the study, the 2′ and/or 7 methine resonances were integrated in a baseline-adjusted NMR spectrum using MestRec software. The relative integrations were used to determine the extent of hydrolysis. The data from three replications was plotted on a semi-log scale to determine the kobs of the prodrug that were then converted to the krel data as presented, defining the rate of the most slowly hydrolyzed prodrug (1d) as krel=1.0. Errors are defined as the standard deviation of the three trials.
^1H NMR spectroscopy was used to establish relative hydrolysis rates of compounds 1-3. The compounds were dissolved in a solution of d6-acetone, D2O, and trifluoroacetic acid (TFA) in a 90:9:1 ratio (v/v/v). Resonances of, e.g., H2′ in the reactant silicate vs. product carbinol were monitored.

[2] = tested on: Tumor cells (4T1, PANC-1 or MDA-MB-231); test: Cytotoxicity against tumor cells in vitro (MTS assay); assay type: cell-based; settings: 72 hours, FIG. 2
Procedure: Tumor cells (4T1, PANC-1 or MDA-MB-231) were seeded in 96-well plates and allowed to attach. Cells were then treated with paclitaxel (solubilized in growth medium using ethanol), silicate prodrug (2a, solubilized in growth medium using ethanol), silicate prodrug nanoparticles (a 58:42 wt % mixture of the bis-triethyl silicate paclitaxel prodrug 2a and a 5K-10K PEG-PLGA BCP dispersed in growth medium) or copolymer-only (blank, no drug) nanoparticles for 72 hours. Cell viability was then measured using a standard MTS assay kit (Promega).

Orthotopic 4T1 tumors = test: 4T1 tumor growth in mice; assay type: in vivo, BALB/c mice
Procedure: Orthotopic 4T1 tumors were grown by injecting ˜1×10^6 tumor cells in the mammary fat pad of BALB/c mice. When the tumors were about 100 mm^3 in volume, the animals were injected with a single dose of paclitaxel dissolved in 1:1 mix of ethanol and cremophor (same formulation as Taxol®), silicate prodrug (2a) dissolved in 1:1 mix of ethanol and cremophor (same formulation as Taxol®), or silicate prodrug nanoparticles dispersed in buffered saline. Untreated animals or those treated with just cremophor/ethanol vehicle were used as controls. […] This study clearly indicates the benefit of formulating paclitaxel in the form of silicate prodrug nanoparticle formulation.

Row | Compound | IC50 (MDA-MB-231 cells; Homo sapiens, MDA-MB-231, 48 h) | krel at C2′ (hydrolysis rate relative to the slowest, 1d) [1] | krel at C7 (hydrolysis rate relative to the slowest, 1d) [1] | also measured
1 | CCO[Si](O[C@@H](C(=O)O[C@H]1C[C@@]2(O)[C@@H](OC(=O)c3ccccc3)[C@@H]3[C@]4(OC(C)=O)CO[C@@H]4C[C@H](O)[C@@]3(C)C(=O)[C@H](OC(C)=O)C(=C1C)C2(C)C)[C@@H](NC(=O)c1ccccc1)c1ccccc1)(OC(C)(C)C)OC(C)(C)C [Compound 1d, 2′-O-(di-t-butylethylorthosilyl)paclitaxel] | 8140 nM | 1.0 ± 0.1 |  | 
2 | CCO[Si](OCC)(OCC)O[C@H]1C[C@H]2OC[C@@]2(OC(C)=O)[C@H]2[C@H](OC(=O)c3ccccc3)[C@]3(O)C[C@H](OC(=O)[C@H](O[Si](OCC)(OCC)OCC)[C@@H](NC(=O)c4ccccc4)c4ccccc4)C(C)=C([C@@H](OC(C)=O)C(=O)[C@]12C)C3(C)C [Compound 2a, 2′,7-Di-O-(triethylorthosilyl)paclitaxel] | 74.4 nM | 1800 ± 100 | 250 ± 10^a | anticancer efficacy (cell viability) compared with paclitaxel [2]: anticancer efficacy similar to the parent compound
3 | CCO[Si](OCC)(OCC)O[C@H]1C[C@H]2OC[C@@]2(OC(C)=O)[C@H]2[C@H](OC(=O)c3ccccc3)[C@]3(O)C[C@H](OC(=O)[C@H](O)[C@@H](NC(=O)c4ccccc4)c4ccccc4)C(C)=C([C@@H](OC(C)=O)C(=O)[C@]12C)C3(C)C [Compound 3a, 7-O-(triethylorthosilyl)paclitaxel] | 21.4 nM |  | 270 ± 10^ | 
4 | CC(=O)O[C@H]1C(=O)[C@@]2(C)[C@H]([C@H](OC(=O)c3ccccc3)[C@]3(O)C[C@H](OC(=O)[C@H](O)[C@@H](NC(=O)c4ccccc4)c4ccccc4)C(C)=C1C3(C)C)[C@]1(OC(C)=O)CO[C@@H]1C[C@@H]2O [PTX, paclitaxel] |  |  |  | IC50 (MDA-MB-231 cells; Homo sapiens, MDA-MB-231 cells, cell viability measured after 48 h, MTT, read-out: IC50): 23.6 nM; tumor volume (Orthotopic 4T1 tumors; Day 13, single dose, tumors about 100 mm^3 at injection): 1450±65 mm^3; reaction at the site of injection (Orthotopic 4T1 tumors; single injection, BALB/c mice): severe tissue irritation and necrosis at the site of injection
5 | CCCCCCCCO[Si](OCCCCCCCC)(OCCCCCCCC)O[C@H]1C[C@H]2OC[C@@]2(OC(C)=O)[C@H]2[C@H](OC(=O)c3ccccc3)[C@]3(O)C[C@H](OC(=O)[C@H](O)[C@@H](NC(=O)c4ccccc4)c4ccccc4)C(C)=C([C@@H](OC(C)=O)C(=O)[C@]12C)C3(C)C [Compound 3b, 7-O-(tri-n-octylorthosilyl)paclitaxel] | 540 nM |  | 55 ± 3^ | 
6 | CCCCCCCCO[Si](OCCCCCCCC)(OCCCCCCCC)OC(C(=O)OC1CC2(O)C(OC(=O)c3ccccc3)C3C4(OC(C)=O)COC4CC(O)C3(C)C(=O)C(OC(C)=O)C(=C1C)C2(C)C)C(NC(=O)c1ccccc1)c1ccccc1 (centres unmarked) [Compound 1b, 2-O-(tri-n-octylorthosilyl)paclitaxel] |  | 710 ± 30 |  | IC50 (MDA-MB-231 cells; MDA-MB-231 cells, cell viability measured after 48 h, MTT, read-out: IC50): 35.6 nM
7 | CCO[Si](OCC)(OCC)O[C@@H](C(=O)O[C@H]1C[C@@]2(O)[C@@H](OC(=O)c3ccccc3)[C@@H]3[C@]4(OC(C)=O)CO[C@@H]4C[C@H](O)[C@@]3(C)C(=O)[C@H](OC(C)=O)C(=C1C)C2(C)C)[C@@H](NC(=O)c1ccccc1)c1ccccc1 [Compound 1a, 2′-O-(triethylorthosilyl)paclitaxel] | 23 nM | 2200 ± 600 |  | difference of krel values between the extremes 1a and 1d ([1]; 1a versus 1d): > 2000 ×; krel of 1a relative to 1b ([1]; hydrolysis rates of 1a and 1b called similar): ca. 3
8 | CC(=O)O[C@H]1C(=O)[C@@]2(C)[C@H]([C@H](OC(=O)c3ccccc3)[C@]3(O)C[C@H](OC(=O)[C@H](O[Si](OC(C)C)(OC(C)C)OC(C)C)[C@@H](NC(=O)c4ccccc4)c4ccccc4)C(C)=C1C3(C)C)[C@]1(OC(C)=O)CO[C@@H]1C[C@@H]2O [Compound 1c, 2′-O-(tri-i-propylorthosilyl)paclitaxel] | 24.5 nM | 69 ± 4 |  | 
9 | CCCCCCCCO[Si](OCCCCCCCC)(OCCCCCCCC)OC(C(=O)OC1CC2(O)C(OC(=O)c3ccccc3)C3C4(OC(C)=O)COC4CC(O[Si](OCCCCCCCC)(OCCCCCCCC)OCCCCCCCC)C3(C)C(=O)C(OC(C)=O)C(=C1C)C2(C)C)C(NC(=O)c1ccccc1)c1ccccc1 (centres unmarked) [Compound 2b, 2′,7-Di-O-(tri-n-octylorthosilyl)paclitaxel] |  | 460 ± 10 | 41 ± 3^b | 
